Measurements: US5374641A, “N-(3-pyridylalkyl)sulfonamide compounds which have useful pharmaceutical activity” (Terumo Kabushiki Kaisha, priority 1991, dated 1994)

Columns and labels:
[1] = system: platelet aggregation caused by U-46619; assay: Test Example 1: Platelet aggregation inhibiting activity (human PRP, U-46619); type: cell-based; conditions: for IC50: Platelet, 320 nM U-46619, 37° C., read-out: Inhibitory effect against platelet aggregation caused by U-46619 (IC50); for platelet aggregation inhibiting activity (in words): U-46619
Experimental: (§1) A blood sample was collected from human fore arm using a syringe containing 3.8% sodium citrate solution (1/10 volume of the blood to be collected) and centrifuged to obtain platelet rich plasma (PRP; 3 ×10^5 platelets/μ1).
(§2) Platelet aggregation was measured using an aggregometer (Hematracer VI, Niko Bioscience Co., Ltd.) by putting 200 µl of the thus prepared PRP and 23.75 µl of physiological saline in a cuvette, setting the cuvette into the aggregometer and incubating the contents at 37° C. for 2 minutes, adding 1.25 μ1 dimethyl sulfoxide (DMSO) solution of each of the N-(3-pyridylalkyl)sulfonamide derivatives obtained in Examples 1, 3, 4, 6 and 8 and incubating for 3 minutes, and then adding U-46619 (Cayman Chemical Co., Inc.) which is a stable PGG2/ H2 derivative having a strong platelet aggregation causing activity.
In this instance, the term "IC50 "as used herein means concentration of the N-(3-pyridylalkyl)sulfonamide derivative of the present invention required to inhibit 50% of the platelet agglutination when platelet aggregation without introducing the inventive derivative was defined as 100%.

thromboxane synthetase [2] = molecular target: T1, thromboxane synthetase (Homo sapiens, UniProt P24557); assay: Test Example 2: Thromboxane synthetase inhibiting activity (human PRP, thrombin, RIA); type: cell-based; conditions: for IC50: 20 U/ml thrombin, RIA, read-out: Inhibition of thromboxane A2 synthesis (IC50); for thromboxane synthetase inhibiting activity (in words): thrombin
T1 sequence (P24557 1-533): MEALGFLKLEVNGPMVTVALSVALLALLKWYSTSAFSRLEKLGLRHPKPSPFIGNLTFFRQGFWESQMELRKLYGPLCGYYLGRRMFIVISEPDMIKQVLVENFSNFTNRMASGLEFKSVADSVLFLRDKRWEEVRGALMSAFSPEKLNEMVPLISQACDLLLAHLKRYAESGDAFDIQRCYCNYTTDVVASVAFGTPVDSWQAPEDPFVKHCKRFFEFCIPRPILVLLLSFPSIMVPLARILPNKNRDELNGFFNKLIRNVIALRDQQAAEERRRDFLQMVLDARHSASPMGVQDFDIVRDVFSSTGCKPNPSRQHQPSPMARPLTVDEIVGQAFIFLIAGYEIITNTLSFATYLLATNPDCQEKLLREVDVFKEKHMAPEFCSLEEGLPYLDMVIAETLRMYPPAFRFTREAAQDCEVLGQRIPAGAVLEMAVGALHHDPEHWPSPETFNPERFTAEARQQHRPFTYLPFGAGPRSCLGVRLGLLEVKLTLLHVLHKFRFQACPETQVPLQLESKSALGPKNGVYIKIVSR
Experimental: as §1
(§3) A 200 μ1 portion of the thus prepared PRP and 23.75 µl of physiological saline were put in a cuvette, the cuvette was set into the aforementioned aggregometer and the contents in the cuvette were incubated at 37° C. for 2 minutes. Thereafter, 1.25 μ1 dimethyl sulfoxide (DMSO) solution of each of the N-(3-pyridylalkyl)sulfonamide derivatives obtained in Examples 1, 3 and 7 was put in the cuvette and incubated for 3 minutes, followed by the addition of 20 U/ml solution of thrombin to cause platelet aggregation. A portion of the supernatant after aggregation reaction was mixed with diethyl ether/methanol/0.2M citric acid (30:4:1 ), and the thus formed thromboxane A2 was extracted and its quantity was analyzed by RIA using a kit of Amersham.

[3] = system: platelet aggregation, induced by U-46619; assay: Test Examples 4: Platelet aggregation inhibiting activity (guinea pig PRP, U-46619); type: cell-based; conditions: Cavia porcellus, 320 nM U-46619, 37° C., read-out: Platelet aggregation activity IC50 (concentration of 50% inhibition of platelet aggregation, induced by U-46619)
Experimental: A blood sample was taken from carotid artery of a guinea pig using a syringe containing 3.8% sodium citrate solution (1/10 volume of the blood to be collected). The blood was centrifuged to obtain platelet riched plasma (PRP: number of platelets, 3×10^5 /μ1).
Two hundred microliters of the PRP and 23.75 µl of physiological saline were placed in a cuvette, which was then set in an aggregometer, followed by heating at 37° C. for two minutes, and then followed by addition of 1.25 µl of the solution of an N-(3-pyridylalkyl)sulfonamide derivative of the present invention in ethanol, for 3-min incubation. Then, U-46619, one of stable PGG2 /H2 derivatives, having strong action inducing platelet aggregation, was added, so that platelet aggregation was measured by an aggregometer [Hematracer VI: manufactured by NIKO Bioscience, K.K.].

thromboxane synthetase [4] = molecular target: T1, thromboxane synthetase; assay: Test Example 5: Thromboxane synthetase inhibiting activity (human platelet microsomal fraction, RIA); type: biochemical; conditions: PGH2, room temperature, 60 seconds, read-out: Inhibition of thromboxane synthetase IC50
Experimental: Arachidonic acid (10 nM) was added to 250 μg of microsome of sheep seminal vesicle gland, commercially available from Hilran Biochemical, Co. Ltd., Israel, Lot SM36, which was then reacted at room temperature for 90 seconds to prepare PGH2.
Commercially available human platelet microsomal fraction (200 μg) as a source for thromboxane synthetase was mixed with the PGH2 solution prepared in the same manner as for samples, and reacted together at room temperature for 60 seconds. Diethyl ether/methanol/0.2M citric acid (30:4:1) was added to extract thromboxane A2 generated and its quantity was then analyzed by RIA using a kit manufactured by NEN, Co. LTd.

[5] = system: platelet aggregation caused by U-46619; assay: Test Examples 6: Platelet aggregation inhibiting activity (human PRP, U-46619); type: cell-based; conditions: for IC50: Platelet, 320 nM U-46619, 37° C., read-out: Inhibitory effect against platelet aggregation caused by U-46619 (IC50); for platelet aggregation inhibiting activity (in words): U-46619
Experimental: A blood sample was collected from human fore arm using a syringe containing 3.8% sodium citrate solution (1/10 volume of the blood to be collected) and centrifuged to obtain platelet rich plasma (PRP; 3×10^5 platelets/μl).
as §2, with “200 μof” for “200 µl of”, “23.75 μl” for “23.75 µl”, “1.25 μl” for “1.25 μ1”, “Examples 35, 36, 37” for “Examples 1, 3, 4, 6”, “and 42” for “and 8”, “stable PGG2 /H2” for “stable PGG2/ H2”
In this instance, the term "IC50 " as used herein means concentration of the N-(3-pyridylalkyl)sulfonamide derivative of the present invention required to inhibit 50% of the platelet aggregation when platelet aggregation without introducing the inventive derivative was defined as 100%.

thromboxane synthetase [6] = molecular target: T1, thromboxane synthetase; assay: Test Example 7: Thromboxane synthetase inhibiting activity (human PRP, thrombin, RIA); type: cell-based; conditions: for IC50: 20 U/ml thrombin, RIA, read-out: Inhibition of thromboxane A2 synthesis (IC50); for thromboxane synthetase inhibiting activity (in words): thrombin
Experimental: A blood sample was collected from human fore arm using a syringe containing 3.8% sodium citrate solution (1/10 volume of the blood to be collected) and centrifuged to obtain platelet rich plasma (PRP; 3×10^5 platelets/μl ).
as §3, with “200 μl” for “200 μ1”, “23.75 μl” for “23.75 µl”, “Examples 36, 37, 38” for “Examples 1, 3”, “and 40” for “and 7”, “acid (30:4:1),” for “acid (30:4:1 ),”

Compound | IC50 [3] | IC50 (thromboxane synthetase [4]) | other results
CCOC(=O)COc1ccc(C(NS(=O)(=O)c2ccc(Cl)cc2)c2cccnc2)cc1 (stereo not shown) [Example 1, ethyl 4-[4-chlorobenzenesulfonamide-(3-pyridyl)methyl]phenyloxyacetate] | – | – | IC50 [1]: 96 µM; platelet aggregation inhibiting activity (in words) [1]: markedly high platelet aggregation inhibiting activity; IC50 (thromboxane synthetase [2]): 0.037 µM; thromboxane synthetase inhibiting activity (in words) (thromboxane synthetase [2]): excellent thromboxane synthetase inhibiting activity
O=C(O)COc1ccc(C(CCNS(=O)(=O)c2ccc(Cl)cc2)c2cccnc2)cc1 (stereo not shown) [Example 7, 4-[3-(4-chlorobenzenesulfonamido)-1-(3-pyridyl)propyl]phenyloxyacetic acid] | – | – | IC50 [1]: 30 µM; platelet aggregation inhibiting activity (in words) [1]: markedly high platelet aggregation inhibiting activity; thromboxane synthetase inhibiting activity (in words) (thromboxane synthetase [2]): excellent thromboxane synthetase inhibiting activity
O=C(O)COc1ccc(C(CCNS(=O)(=O)c2ccc(Cl)cc2)Cc2cccnc2)cc1 (stereo not shown) [Example 8, 4-[1-(4-chlorobenzenesulfonamido)-4-(3-pyridyl)-3-butyl]phenyloxyacetic acid] | – | – | IC50 (thromboxane synthetase [2]): 4.3 µM
CCOC(=O)COc1ccc(C(CCNS(=O)(=O)c2ccc(Cl)cc2)Cc2cccnc2)cc1 (stereo not shown) [Example 9] | – | – | IC50 [1]: 5.1 µM; platelet aggregation inhibiting activity (in words) [1]: markedly high platelet aggregation inhibiting activity
Cc1ccc(S(=O)(=O)NC(Cc2ccc(OCC(=O)O)cc2)c2cccnc2)cc1 (stereo not shown) [Example 11] | 1.9 µM | 21 µM | –
O=C(O)COc1ccc(CC(NS(=O)(=O)c2ccccc2)c2cccnc2)cc1 (stereo not shown) [Example 13] | 0.84 µM | 8.9 µM | –
O=C(O)/C=C/c1ccc(CC(NS(=O)(=O)c2ccc(Cl)cc2)c2cccnc2)cc1 (stereo not shown) [Example 15, 4-[2-(4-chlorobenzenesulfonamido]-2-(3-pyridyl)ethyl]cinnamic acid] | 1.1 µM | 36 µM | –
O=C(O)CCc1ccc(CC(NS(=O)(=O)c2ccc(Cl)cc2)c2cccnc2)cc1 (stereo not shown) [Example 17, 3-{4-[2-(4-chlorobenzenesulfonamido)-2(3-pyridyl)ethyl]phenyl}propionic acid] | 1.8 µM | 30 µM | –
O=C(O)c1ccc(CC(NS(=O)(=O)c2ccc(Cl)cc2)c2cccnc2)cc1 (stereo not shown) [Example 19] | 4.2 µM | 1 µM | –
O=C(O)Cc1ccc(CC(NS(=O)(=O)c2ccc(Cl)cc2)c2cccnc2)cc1 (stereo not shown) [Example 21, 4-[2-(4-chlorobenzenesulfonamido)-2-(3-pyridyl)ethyl]phenylacetic acid] | 0.68 µM | 2.2 µM | –
O=C(O)COc1ccc(C(CNS(=O)(=O)c2ccc(Cl)cc2)Cc2cccnc2)cc1 (stereo not shown) [Example 23, 4-[{1-(4-chlorobenzenesulfonamido)-3-(3-pyridyl)}propan-2-yl]phenoxyaceticacid] | 0.36 µM | 5.1 µM | –
CCOC(=O)Oc1ccc(C(CNS(=O)(=O)c2ccc(Cl)cc2)Cc2cccnc2)cc1 (stereo not shown) [Example 24] | 40 µM | 2.2 µM | –
O=C(O)COc1ccc(CC(CNS(=O)(=O)c2ccc(Cl)cc2)c2cccnc2)cc1 (stereo not shown) [Example 26] | 60 µM | 2.4 µM | –
CCOC(=O)Oc1ccc(CC(CNS(=O)(=O)c2ccc(Cl)cc2)c2cccnc2)cc1 (stereo not shown) [Example 27] | 52 µM | 28 µM | –
O=C(O)c1ccc(CCC(NS(=O)(=O)c2ccc(Cl)cc2)c2cccnc2)cc1 (stereo not shown) [Example 29, 4-[3-(4-chlorobenzenesulfonamido)-3-(3-pyridyl)propyl]benzoic acid] | 2 µM | 1.5 µM | –
O=C(O)COc1ccc(CCC(NS(=O)(=O)c2ccc(Cl)cc2)c2cccnc2)cc1 (stereo not shown) [Example 31, 4-[3-(4-chlorobenzenesulfonamido)-3-(3-pyridyl)propyl]phenoxyacetic acid] | 15 µM | 0.94 µM | –
O=C(O)COc1ccc(CC(CCNS(=O)(=O)c2ccc(Cl)cc2)c2cccnc2)cc1 (stereo not shown) [Example 33] | 17 µM | 0.03 µM | –
C/C(=C\c1ccc(CC(NS(=O)(=O)c2ccc(Cl)cc2)c2cccnc2)cc1)C(=O)O (stereo not shown) [Example 35] | – | – | IC50 [5]: 48 µM; platelet aggregation inhibiting activity (in words) [5]: markedly high platelet aggregation inhibiting activity
C/C(=C\c1ccc(C(CNS(=O)(=O)c2ccc(Cl)cc2)Cc2cccnc2)cc1)C(=O)O (stereo not drawn) [Example 36, 4-[1-(4-chlorobenzenesulfonamido)-3-(3-pyridyl)-2-propyl]-α-methylcinnamic acid] | – | – | IC50 (thromboxane synthetase [6]): 8.3 µM; thromboxane synthetase inhibiting activity (in words) (thromboxane synthetase [6]): excellent thromboxane synthetase inhibiting activity; IC50 [5]: 71 µM; platelet aggregation inhibiting activity (in words) [5]: markedly high platelet aggregation inhibiting activity
CCOC(=O)/C(C)=C/c1ccc(C(CNS(=O)(=O)c2ccc(Cl)cc2)c2cccnc2)cc1 (stereo not drawn) [Example 40, ethyl 4-[2-(4-chlorobenzenesulfonamido)-1-(3-pyridyl)ethyl]-α-methylcinnamate] | – | – | IC50 (thromboxane synthetase [6]): 1.5 µM; thromboxane synthetase inhibiting activity (in words) (thromboxane synthetase [6]): excellent thromboxane synthetase inhibiting activity
C/C(=C\c1ccc(C(CCNS(=O)(=O)c2ccc(Cl)cc2)c2cccnc2)n1C)C(=O)O (stereo not shown) [Example 42] | – | – | IC50 [5]: 43 µM; platelet aggregation inhibiting activity (in words) [5]: markedly high platelet aggregation inhibiting activity
